Reference: patent US11104690B2, “Indazole derivatives useful as inhibitors of diacylglyceride O-acyltransferase 2” (Merck Sharp & Dohme Corp., priority 2016, dated 2021)
“And” between values parts separate entries of the source, which are not always exact repeats. Equal values may be shown once.

Target: Human DGAT2 (Homo sapiens (Human), UniProt Q96PD7)
Test: DGAT2 Enzymatic Activity Assay (triolein formation, LC/MS/MS)
Type: biochemical
Details: hDGAT2 Sf-9 membrane prep; 25 μM diolein, 10 μM oleoyl-CoA; room temperature
Method in brief: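 Triolein product, measured by LC/MS/MS as a ratio to internal standard, gave % inhibition and 4-parameter IC50. Reaction: 25 μM diolein, 10 μM oleoyl-CoA, 10 ng/μL hDGAT2 Sf-9 membrane, 100 mM Tris.Cl pH 7.0, 20 mM MgCl2, 5% ethanol, room temperature.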

Human DGAT2, sequence (Q96PD7 whole entry): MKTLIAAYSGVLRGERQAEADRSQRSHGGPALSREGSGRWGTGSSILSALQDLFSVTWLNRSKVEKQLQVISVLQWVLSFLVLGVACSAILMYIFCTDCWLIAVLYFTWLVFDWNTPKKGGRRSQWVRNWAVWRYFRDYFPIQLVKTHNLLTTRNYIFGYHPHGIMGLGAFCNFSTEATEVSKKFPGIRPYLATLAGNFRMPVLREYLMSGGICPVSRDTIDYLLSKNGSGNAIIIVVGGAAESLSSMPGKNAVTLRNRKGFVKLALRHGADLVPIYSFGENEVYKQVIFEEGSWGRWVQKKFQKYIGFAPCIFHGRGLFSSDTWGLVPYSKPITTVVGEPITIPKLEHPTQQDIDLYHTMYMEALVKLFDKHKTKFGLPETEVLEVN

| Structure (SMILES) | IC50 |
| --- | --- |
| CC1(NC(=O)c2ccc3c(-c4cccc(C5CC5)c4)nn(-c4ccc(F)cn4)c3c2)CCS(=O)(=O)C1 (single isomer, unassigned) [Example 125-A, 3-(3-cyclopropylphenyl)-1-(5-fluoropyridin-2-yl)-N-(3-methyl-1,1-dioxidotetrahydrothiophen-3-yl)-1H-indazole-6-carboxamide] | 4.2 nM |
| CC1(NC(=O)c2ccc3c(-c4cccc(C5CC5)c4)nn(-c4ccc(F)cn4)c3c2)CCS(=O)(=O)C1 (single isomer, unassigned) [Example 125-B, 3-(3-cyclopropylphenyl)-1-(5-fluoropyridin-2-yl)-N-(3-methyl-1,1-dioxidotetrahydrothiophen-3-yl)-1H-indazole-6-carboxamide] | 3 nM |
| O=C(NC1CCS(=O)(=O)C1)c1ccc2c(-c3cccc(C4CC4)c3)nn(-c3ccc(F)cn3)c2c1 (single isomer, unassigned) [Example 126-A, 3-(3-cyclopropylphenyl)-N-(1,1-dioxidotetrahydrothiophen-3-yl)-1-(5-fluoropyridin-2-yl)-1H-indazole-6-carboxamide] | 11 nM |
| N#Cc1ccc(Cl)c(-c2nn(-c3ccc(F)cn3)c3cc(C(=O)NC4CCS(=O)(=O)C4)ccc23)c1 (single isomer, unassigned) [Example 127-A, 3-(2-chloro-5-cyanophenyl)-N-(1,1-dioxidotetrahydrothiophen-3-yl)-1-(5-fluoropyridin-2-yl)-1H-indazole-6-carboxamide] | 8.2 nM |
| CC1(NC(=O)c2ccc3c(-c4cccc(OC(F)F)c4)nn(-c4ccc(F)cn4)c3c2)CCS(=O)(=O)C1 (single isomer, unassigned) [Example 128-A, 3-[3-(difluoromethoxy)phenyl]-1-(5-fluoropyridin-2-yl)-N-(3-methyl-1,1-dioxidotetrahydrothiophen-3-yl)-1H-indazole-6-carboxamide] | 3.3 nM |
| N#Cc1cccc(-c2nn(-c3ccc(F)cc3)c3cc(C(=O)NC4CCS(=O)(=O)C4)ccc23)c1 (single isomer, unassigned) [Example 129-A] | 10 nM |
| O=C(NC1CCS(=O)(=O)C1)c1ccc2c(-c3cccc(Cl)c3Cl)nn(-c3ccc(F)cc3)c2c1 (single isomer, unassigned) [Example 130-A, 3-(2,3-dichlorophenyl)-N-(1,1-dioxidotetrahydro-thiophen-3-yl)-1-(4-fluorophenyl)-1H-indazole-6-carboxamide] | 3.6 nM |
| COc1cccc(-c2nn(-c3ccc(F)cc3)c3cc(C(=O)NC4CCS(=O)(=O)C4)ccc23)c1 (single isomer, unassigned) [Example 131-A, N-(1,1-dioxidotetrahydrothiophen-3-yl)-1-(4-fluorophenyl)-3-(3-methoxyphenyl)-1H-indazole-6-carboxamide] | 3 nM |
| O=C(NC1CCS(=O)(=O)C1)c1ccc2c(-c3c(F)cccc3F)nn(-c3ccc(F)cc3)c2c1 (single isomer, unassigned) [Example 132-A, 3-(2,6-difluorophenyl)-N-(1,1-dioxidotetrahydro-thiophen-3-yl)-1-(4-fluorophenyl)-1H-indazole-6-carboxamide] | 25 nM |
| O=C(NC1CCS(=O)(=O)C1)c1ccc2c(-c3cncnc3)nn(-c3ccc(F)cc3)c2c1 (single isomer, unassigned) [Example 133-A, N-(1,1-dioxidotetrahydrothiophen-3-yl)-1-(4-fluorophenyl)-3-pyrimidin-5-yl-1H-indazole-6-carboxamide] | 846 nM |
| O=C(NC1CCS(=O)(=O)C1)c1ccc2c(-c3cccnc3)nn(-c3ccc(F)cc3)c2c1 (single isomer, unassigned) [Example 134-A, N-(1,1-dioxidotetrahydrothiophen-3-yl)-1-(4-fluorophenyl)-3-pyridin-3-yl-1H-indazole-6-carboxamide] | 212 nM |
| O=C(NC1CCS(=O)(=O)C1)c1ccc2c(-c3cccnc3Cl)nn(-c3ccc(F)cc3)c2c1 (single isomer, unassigned) [Example 135-A, 3-(2-chloropyridin-3-yl)-N-(1,1-dioxidotetrahydrothiophen-3-yl)-1-(4-fluorophenyl)-1H-indazole-6-carboxamide] | 65 nM |
| O=C(NC1CCS(=O)(=O)C1)c1ccc2c(-c3cccc(OC(F)F)c3)nn(-c3ccc(F)cc3)c2c1 (single isomer, unassigned) [Example 136-A, 3-[3-(difluoromethoxy)phenyl]-N-(1,1-dioxidotetrahydrothiophen-3-yl)-1-(4-fluorophenyl)-1H-indazole-6-carboxamide] | 1.4 nM |
| COc1cc(-c2nn(-c3ccc(F)cc3)c3cc(C(=O)NC4CCS(=O)(=O)C4)ccc23)c(Cl)cn1 (single isomer, unassigned) [Example 137-A, 3-(5-chloro-2-methoxypyridin-4-yl)-N-(1,1-dioxidotetrahydrothiophen-3-yl)-1-(4-fluorophenyl)-1H-indazole-6-carboxamide] | 5.4 nM |
| COc1cc(-c2nn(-c3ccc(F)cc3)c3cc(C(=O)NC4(C)CCS(=O)(=O)C4)ccc23)c(Cl)cn1 (single isomer, unassigned) [Example 141-A, 3-(5-chloro-2-methoxypyridin-4-yl)-1-(4-fluorophenyl)-N-(3-methyl-1,1-dioxidotetrahydrothiophen-3-yl)-1H-indazole-6-carboxamide] | 4.8 nM |
| COc1ncc(Cl)cc1-c1nn(-c2ccc(F)cc2)c2cc(C(=O)NC3(C)CCS(=O)(=O)C3)ccc12 (single isomer, unassigned) [Example 142-A, 3-(5-chloro-2-methoxypyridin-3-yl)-1-(4-fluorophenyl)-N-(3-methyl-1,1-dioxidotetrahydrothiophen-3-yl)-1H-indazole-6-carboxamide] | 430 nM |
| CC1(NC(=O)c2ccc3c(-c4cncc(C#N)c4)nn(-c4ccc(F)cc4)c3c2)CCS(=O)(=O)C1 (single isomer, unassigned) [Example 146-A, 3-(5-cyanopyridin-3-yl)-1-(4-fluorophenyl)-N-(3-methyl-1,1-dioxidotetrahydrothiophen-3-yl)-1H-indazole-6-carboxamide] | 63 nM |
| CC1(NC(=O)c2ccc3c(-c4cccc(OCC(F)(F)F)c4)nn(-c4ccc(F)cc4)c3c2)CCS(=O)(=O)C1 (single isomer, unassigned) [Example 147-A, 1-(4-fluorophenyl)-N-(3-methyl-1,1-dioxidotetrahydrothiophen-3-yl)-3-[3-(2,2,2-trifluoroethoxy)phenyl]-1H-indazole-6-carboxamide] | 5.7 nM |

Other lines, results leading:

| IC50 | Structure (SMILES) |
| --- | --- |
| 229 nM and 158 nM | CC1(NC(=O)c2ccc3c(-c4ccc5c(c4)OCO5)nn(-c4ccc(F)cc4)c3c2)CCS(=O)(=O)C1 (single isomer, unassigned) [Example 139-A, 3-(1,3-benzodioxol-5-yl)-1-(4-fluorophenyl)-N-(3-methyl-1,1-dioxidotetrahydrothiophen-3-yl)-1H-indazole-6-carboxamide] |
| 455 nM | COc1cc(-c2nn(-c3ccc(F)cc3)c3cc(C(=O)NC4(C)CCS(=O)(=O)C4)ccc23)ccn1 (single isomer, unassigned) [Example 140-A, 1-(4-fluorophenyl)-3-(2-methoxypyridin-4-yl)-N-(3-methyl-1,1-dioxidotetrahydrothiophen-3-yl)-1H-indazole-6-carboxamide] |
| 1.6 nM | CC1(NC(=O)c2ccc3c(-c4cccc(OC(F)F)c4)nn(-c4ccc(F)cc4)c3c2)CCS(=O)(=O)C1 (single isomer, unassigned) [Example 143-A, 3-[3-(difluoromethoxy)phenyl]-1-(4-fluorophenyl)-N-(3-methyl-1,1-dioxidotetrahydrothiophen-3-yl)-1H-indazole-6-carboxamide] |
| 5.8 nM | COc1cccc(-c2nn(-c3ccc(F)cc3)c3cc(C(=O)NC4(C)CCS(=O)(=O)C4)ccc23)c1 (single isomer, unassigned) [Example 144-A, 1-(4-fluorophenyl)-3-(3-methoxyphenyl)-N-(3-methyl-1,1-dioxidotetrahydrothiophen-3-yl)-1H-indazole-6-carboxamide] |
| 2.1 nM | CC1(NC(=O)c2ccc3c(-c4cccc(C5CC5)c4)nn(-c4ccc(F)cc4)c3c2)CCS(=O)(=O)C1 (single isomer, unassigned) [Example 145-A, 3-(3-cyclopropylphenyl)-1-(4-fluorophenyl)-N-(3-methyl-1,1-dioxidotetrahydrothiophen-3-yl)-1H-indazole-6-carboxamide] |
| 4.5 nM | CC1(NC(=O)c2ccc3c(-c4cc(C#N)ccc4F)nn(-c4ccc(F)cc4)c3c2)CCS(=O)(=O)C1 (single isomer, unassigned) [Example 151-A, 3-(5-cyano-2-fluorophenyl)-1-(4-fluorophenyl)-N-(3-methyl-1,1-dioxidotetrahydrothiophen-3-yl)-1H-indazole-6-carboxamide] |
| 4.5 nM | CC1(NC(=O)c2ccc3c(-c4ccc(Cl)nc4F)nn(-c4ccc(F)cc4)c3c2)CCS(=O)(=O)C1 (single isomer, unassigned) [Example 152-A, 3-(6-chloro-2-fluoropyridin-3-yl)-1-(4-fluorophenyl)-N-(3-methyl-1,1-dioxidotetrahydrothiophen-3-yl)-1H-indazole-6-carboxamide] |
| 90 nM | CC1(NC(=O)c2ccc3c(-c4cncc(F)c4)nn(-c4ccc(F)cc4)c3c2)CCS(=O)(=O)C1 (single isomer, unassigned) [Example 153-A, 1-(4-fluorophenyl)-3-(5-fluoropyridin-3-yl)-N-(3-methyl-1,1-dioxidotetrahydrothiophen-3-yl)-1H-indazole-6-carboxamide] |
| 17 nM | CC1(NC(=O)c2ccc3c(-c4cccnc4F)nn(-c4ccc(F)cc4)c3c2)CCS(=O)(=O)C1 (single isomer, unassigned) [Example 154-A, 1-(4-fluorophenyl)-3-(2-fluoropyridin-3-yl)-N-(3-methyl-1,1-dioxidotetrahydrothiophen-3-yl)-1H-indazole-6-carboxamide] |
